Assay results published in ChEMBL document CHEMBL1150093, “Santolindiacetylene, a polyacetylene derivative isolated from the essential oil of Santolina canescens” (J Nat Prod, 1995).
Converted amounts (≈) assume the structure as drawn.

Tests used:
[1] = test system: Radical scavenging activity; assay: Antioxidant activity assessed as DPPH radical scavenging activity; assay type: functional
[2] = test system: Rattus norvegicus; assay: Antihepatotoxic activity against carbon tetrachloride-induced hepatotoxicity in Wistar rat liver assessed as decrease in hepatic malondialdehyde level at 35 mg/kg, ip administered 24 hrs before carbon tetrachloride intoxication; assay type: functional, organism-based; set-up: dose 35 mg/kg
[3] = test system: Rattus norvegicus; assay: Antihepatotoxic activity against carbon tetrachloride-induced hepatotoxicity in Wistar rat liver assessed as decrease in serum glutamate pyruvate transaminase level at 35 mg/kg, ip administered 24 hrs before carbon tetrachloride intoxication relative to control; assay type: functional, organism-based; set-up: dose 35 mg/kg; scale not given: the % may be the effect or the level left
[4] = test system: Rattus norvegicus; assay: Antihepatotoxic activity against carbon tetrachloride-induced hepatotoxicity in Wistar rat liver assessed as decrease in hepatic malondialdehyde level at 35 mg/kg, ip administered 24 hrs before carbon tetrachloride intoxication relative to control; assay type: functional, organism-based; set-up: dose 35 mg/kg; scale not given: the % may be the effect or the level left
[5] = test system: Rattus norvegicus; assay: Antihepatotoxic activity against carbon tetrachloride-induced hepatotoxicity in Wistar rat liver assessed as decrease in serum glutamate pyruvate transaminase level at 35 mg/kg, ip administered 24 hrs before carbon tetrachloride intoxication; assay type: functional, organism-based; set-up: dose 35 mg/kg
[6] = test system: Rattus norvegicus; assay: Antihepatotoxic activity against carbon tetrachloride-induced hepatotoxicity in Wistar rat assessed as decrease in serum glutamate pyruvate transaminase level at 7 mg/kg, ip administered 24 hrs before carbon tetrachloride intoxication; assay type: functional; conditions: route intraperitoneal
[7] = test system: Rattus norvegicus; assay: Antihepatotoxic activity against carbon tetrachloride-induced hepatotoxicity in Wistar rat liver assessed as decrease in serum glutamate pyruvate transaminase level at 7 mg/kg, ip administered 24 hrs before carbon tetrachloride intoxication relative to control; assay type: functional; set-up: scale not given: the % may be the effect or the level left; conditions: route intraperitoneal
[8] = test system: Rattus norvegicus; assay: Antihepatotoxic activity against carbon tetrachloride-induced hepatotoxicity in Wistar rat liver assessed as decrease in hepatic malondialdehyde level at 7 mg/kg, ip administered 24 hrs before carbon tetrachloride intoxication; assay type: functional; conditions: route intraperitoneal
[9] = test system: Rattus norvegicus; assay: Antihepatotoxic activity against carbon tetrachloride-induced -induced hepatotoxicity in Wistar rat liver assessed as decrease in hepatic malondialdehyde level at 7 mg/kg, ip administered 24 hrs before carbon tetrachloride intoxication relative to control; assay type: functional; set-up: scale not given: the % may be the effect or the level left; conditions: route intraperitoneal

| EC50 [1] [mg/mL] | Compound | other results |
| --- | --- | --- |
| 330.6 (≈ 2430 mM) | CC1=CCC2CC1C2(C)C (stereo not drawn) [ALPHA-PINENE] | – |
| – | O=C1O[C@H]([C@@H](O)CO)C(O)=C1O | Activity [1]: 2.7 µg/mL |
| 232.7 (≈ 1710 mM) | C=C1CCC2(C(C)C)CC12 (centres undefined) [SABINENE] | – |
| 53.7 (≈ 348 mM) | CC1=CCC(O)(C(C)C)CC1 (centres undefined) [TERPINEOL] | – |
| 220.1 (≈ 1620 mM) | C=C1CCC2CC1C2(C)C (stereo not drawn) [BETA-PINENE] | – |
| 2.4 (≈ 15.8 mM) | CC12CCC(CC1=O)C2(C)C (centres undefined) [CAMPHOR] | – |
| – | SILYMARIN | Activity [1]: 24.6 µg/mL; Activity [2]: 0.2 nmol/mL; Activity [3]: 23.7%; Activity [4]: 36.6%; Activity [5]: 27.9 IU/L |
| 408 (≈ 3040 mM) | Cc1ccc(C(C)C)cc1 [P-CYMENE] | – |
| 127.7 (≈ 937 mM) | C=C1C=CC(C(C)C)CC1 (stereo not drawn) [BETA-PHELLANDRENE] | – |
| 0.1463 (≈ 0.948 mM) | CC1=CC[C@@H](C(C)(C)O)CC1 [ALPHA-TERPINEOL] | – |
| – | CC#CC#CCc1ccc2ccccc2c1 [SANTOLINDIACETYLENE] | Activity [6]: 23.3 IU/L; Activity [7]: 19.8%; Activity [8]: 0.182 nmol/mL; Activity [1]: 1.7 µg/mL; Activity [9]: 33.3% |
| 0.0037 (≈ 0.0181 mM) | C=C1CC/C=C(/C)CC[C@@H]2[C@@H]1CC2(C)C [CARYOPHYLLENE] | – |
| 2.4 (≈ 15.6 mM) | CC1(C)C2CCC1(C)C(O)C2 (centres undefined) [BORNEOL] | – |
| 11.7 (≈ 77.9 mM) | C=C(C)C1CC=C(C)C(=O)C1 (centres undefined) [CARVONE] | – |
| 22 (≈ 161 mM) | CC1=CCC(C(C)C)=CC1 [GAMMA-TERPINENE] | – |
| 248 (≈ 1820 mM) | C=CC(=C)CCC=C(C)C [MYRCENE] | – |
